Experimental data as given in patent US8680052B1, “Methods of treating, reducing the incidence of, and/or preventing ischemic events” (The Medicines Company, priority 2013, dated 2014).

Test system: patients with acute coronary syndromes undergoing PCI
Assay: Example 2: bleeding (GUSTO, TIMI, ACUITY) and adverse events up to 48 hours
Assay type: in vivo, human
From the text: Multiple definitions of bleeding were used for full disclosure of bleeding risks associated with cangrelor: […] N Engl J Med 329:673-82 (1993); mild, moderate, or severe/life-threatening based on transfusion use and presence/absence of hemodynamic compromise); […] Investigators reported adverse and serious adverse events according to International Conference on Harmonization guidance (International Conference on Harmonization (ICH) Guidance Documents. U.S. Food and Drug Administration Web site. (Accessed on Oct. 8, 2009, at the FDA website beginning with “www.” and ending with “fda.gov/RegulatoryInformation/Guidances/ucm122049.htm”)).

## CSCCNc1nc(SCCC(F)(F)F)nc2c1ncn2[C@@H]1O[C@H](COP(=O)(O)OP(=O)(O)C(Cl)(Cl)P(=O)(O)O)[C@@H](O)[C@H]1O [Cangrelor, cangrelor]
48-hour, safety population, cangrelor vs clopidogrel
  OR (95% CI): Hematoma ≧5 cm at puncture site: 1.12 (0.82, 1.53)
human, in vivo, 48 h
  ACUITY criteria Major bleeding: 158 (3.6) no. (%)
  ACUITY criteria Minor bleeding: 768 (17.6) no. (%)
  Access site bleeding requiring radiologic or surgical intervention: 6 (0.1) no. (%)
  Any blood transfusion: 46 (1.1) no. (%)
  Any platelet transfusion: 6 (0.1) no. (%)
  Drop in hemoglobin and/or hematocrit: 91 (2.1) no. (%)
  Dyspnea: 1.0%
  Ecchymosis: 284 (6.5) no. (%)
  Epistaxis: 9 (0.2) no. (%)
  GUSTO criteria Mild bleeding: 858 (19.6) no. (%)
  GUSTO criteria Moderate bleeding: 41 (0.9) no. (%)
  GUSTO criteria Severe/life-threatening bleeding: 10 (0.2) no. (%)
  Hematoma <5 cm at puncture site: 251 (5.7) no. (%)
  Hematoma ≧5 cm at puncture site: 85 (1.9) no. (%)
  Hemodynamic compromise: 9 (0.2) no. (%)
  Intracranial hemorrhage: 1 (0.0) no. (%)
  Intraocular: 2 (0.0) no. (%)
  OR (95% CI): ACUITY criteria Major bleeding: 1.26 (0.99, 1.60)
  OR (95% CI): ACUITY criteria Minor bleeding: 1.19 (1.06, 1.33)
  OR (95% CI): Access site bleeding requiring radiologic or surgical intervention: 0.60 (0.22, 1.65)
  OR (95% CI): Any blood transfusion: 1.09 (0.72, 1.67)
  OR (95% CI): Any platelet transfusion: 1.20 (0.37, 3.93)
  OR (95% CI): Drop in hemoglobin and/or hematocrit: 1.45 (1.05, 2.01)
  OR (95% CI): Ecchymosis: 1.23 (1.03, 1.47)
  OR (95% CI): Epistaxis: 0.41 (0.19, 0.89)
  OR (95% CI): GUSTO criteria Mild bleeding: 1.20 (1.07, 1.34)
  OR (95% CI): GUSTO criteria Moderate bleeding: 1.21 (0.76, 1.90)
  OR (95% CI): GUSTO criteria Severe/life-threatening bleeding: 0.91 (0.39, 2.14)
  OR (95% CI): Hematoma <5 cm at puncture site: 1.14 (0.94, 1.37)
  OR (95% CI): Hemodynamic compromise: 0.82 (0.34, 1.97)
  OR (95% CI): Oozing at puncture site: 1.28 (1.10, 1.49)
  OR (95% CI): Reoperation for bleeding: 1.00 (0.06, 15.96)
  OR (95% CI): Retroperitoneal: 1.50 (0.67, 3.34)
  OR (95% CI): TIMI criteria Major bleeding: 1.36 (0.68, 2.71)
  OR (95% CI): TIMI criteria Minor bleeding: 1.39 (0.84, 2.30)
  OR (95% CI): Thrombocytopenia: 0.86 (0.29, 2.55)
  Oozing at puncture site: 400 (9.1) no. (%)
  Reoperation for bleeding: 1 (0.0) no. (%)
  Reported adverse events: 26.4%
  Retroperitoneal: 15 (0.3) no. (%)
  Serious adverse events: 2.7%
  TIMI criteria Major bleeding: 19 (0.4) no. (%)
  TIMI criteria Minor bleeding: 36 (0.8) no. (%)
  Thrombocytopenia: 6 (0.1) no. (%)
  discontinuation of study drug due to an adverse event: 0.5%

## COC(=O)[C@H](c1ccccc1Cl)N1CCc2sccc2C1 [Clopidogrel, clopidogrel, reference compound]
48-hour, safety population
  ACUITY criteria Major bleeding: 126 (2.9) no. (%)
  ACUITY criteria Minor bleeding: 663 (15.2) no. (%)
  Access site bleeding requiring radiologic or surgical intervention: 10 (0.2) no. (%)
  Any blood transfusion: 42 (1.0) no. (%)
  Any platelet transfusion: 5 (0.1) no. (%)
  Drop in hemoglobin and/or hematocrit: 63 (1.4) no. (%)
  Ecchymosis: 234 (5.4) no. (%)
  Epistaxis: 22 (0.5) no. (%)
  GUSTO criteria Mild bleeding: 739 (16.9) no. (%)
  GUSTO criteria Moderate bleeding: 34 (0.8) no. (%)
  GUSTO criteria Severe/life-threatening bleeding: 11 (0.3) no. (%)
  Hematoma <5 cm at puncture site: 222 (5.1) no. (%)
  Hematoma ≧5 cm at puncture site: 76 (1.7) no. (%)
  Hemodynamic compromise: 11 (0.3) no. (%)
  Intracranial hemorrhage: 0 (0.0) no. (%)
  Intraocular: 0 (0.0) no. (%)
  Oozing at puncture site: 319 (7.3) no. (%)
  Reoperation for bleeding: 1 (0.0) no. (%)
  Retroperitoneal: 10 (0.2) no. (%)
  TIMI criteria Major bleeding: 14 (0.3) no. (%)
  TIMI criteria Minor bleeding: 26 (0.6) no. (%)
  Thrombocytopenia: 7 (0.2) no. (%)
human, in vivo, 48 h
  Dyspnea: 0.4%
  Serious adverse events: 2.7%
  discontinuation of study drug due to an adverse event: 0.5%
Safety population
  Reported adverse events: 25.7%
